According to PMC4279406, “Simultaneous targeting of PI3Kδ and a PI3Kδ-dependent MEK1/2-Erk1/2 pathway for therapy in pediatric B-cell acute lymphoblastic leukemia” (Oncotarget, 2014):

Key:
Format in all cases: cell-based, human
Raji cells = assay: Signaling by Western blot
Procedure: (§1) Raji and SU-DHL-6 cells were treated with X-370 for 1 h (left panel) or treated with 0.5 μM X-370 for indicated times (middle panel). Right panel, Raji cells were incubated in fresh medium following treatment with 0.5 μM X-370 for 1 h. Indicated proteins were detected. (B) Raji-R (the rituximab-resistant derivatives of Raji cells) cells were resistant to X-370. The activity of X-370 on the proliferation of Raji parent and Raji-R cells was determined by CCK-8 assay as described in the methods section. (C) X-370 blocked phosphorylation of Akt but not Erk1/2 in Raji-R cells. Raji-R cells were treated with X-370 for 1h and indicated proteins were detected. Data shown are representative from three independent experiments.
(§2) Figure 5 Inhibition of Erk1/2 phosphorylation by X-370 contributed to its antiproliferative activity (A-C) X-370 inhibited Erk1/2 phosphorylation via PI3K-PDK1-MEK1/2 cascade but not the PI3K-Gab1 positive feedback loop. (A) Raji and SU-DHL-6 cells were exposed to 1 μM X370 for 3 h and protein fraction from cellular membrane was separated using Native Membrane Protein Extraction Kit and probed. WCL: whole cell lysate. (B) Inhibition of PDK1 or MEK1/2 abrogated Erk1/2 phosphorylation. Cells were treated with pharmacological inhibitors of Raf (AZ 628, PLX4032), MEK1/2 (AZD6244), p90RSK (BI-D1870), PI3Kδ (X-370), PDK1 (BX-912), Akt (MK-2206), mTOR (AZD8055) or mTORC1 (Rapamycin) respectively and indicated proteins were detected. (C) X-370 disrupted the association between PDK1 and MEK1/2. Raji cells were treated with 1 μM X370 for 1 h and cell lysates were immunoprecipitated with anti-PDK1 antibody and indicated proteins were detected. WCL: whole cell lysate. (D-F) Inhibition of Erk1/2 phosphorylation was required for the anti-proliferative activity of X-370. (D) Raji cells ectopically expressing a constitutively activated phospho-mimic MEK1 mutant (MEK1 S202D/S204D or MEK DD) were incubated with X-370 or AZD6244 for 1 h and then subjected to Western blot. (E) Raji and Raji MEK DD cells were treated with X-370 for 72 h and cell proliferation was detected by CCK-8 assay. (F) Raji MEK DD cells were treated with X-370 and AZD6244 and cell proliferation was detected by CCK-8 assay. Data were show as mean ± SD of three independent experiments. *: p < 0.05 determined by t-tests at each data point. […]
(§3) Cells were treated as indicated conditions and then subjected to lysate to perform standard Western blot as described previously1. Briefly, whole-cell lysates and SDS-loading buffer diluted cell fractions were analyzed on SDS-PAGE gels. Transfer to nitrocellulose membranes, nonfat milk blocking, probing with indicated primary antibodies and the corresponding HRP-conjugated second antibodies.
(§4) Chemiluminescence were performed and captured using ImageQuant LAS 4000 (GE healthcare Life Sciences, Piscataway, NJ, USA) and band intensity was measure both with ImageQuant™ TL (GE Healthcare Life Sciences) 2. […]
(§5) (also on this page, place not known: PI3Kδ -dependent MEK1/2 - B -cell previously 1. whole -cell SDS -loading SDS -PAGE HRP -conjugated (G E A B Val828 Trp760 Thr750 Met752 Tyr813 affinity pocket specificity pocket hinge Glu826 CAL-101 X-370) […]
(§6) (1 picture or pasted object on this page, not shown here)

SU-DHL-6 cells = assay: Signaling by Western blot
Procedure: as §1, §2, §3, §4, §5, §6

[1] = tested on: Raji cells expressing luciferase; assay: Viability of Raji cells expressing luciferase (CCK-8); details: 1 μM, 72 h
Procedure: Cell viability was assessed using Cell Counting Kit (CCK-8, Dojindo, Japan) following the manufacturer's protocol and OD values were measured with a Spectramax M5 plate reader (Molecular Devices, Sunnyvale, CA)[45].
Figure S6: CAL-101 inhibited both Akt and Erk1/2 signaling in Raji and SU-DHL -6 cells. Raji and SU-DHL-6 cells were incubated with CAL-101 for an hour and then collected to perform Western blot, the […]
luciferase. Raji cells expressing MEK DD or luciferase were incubated with 1 μM AZD6244 or DMSO control respectively for 72 h, and then cell viability were assessed by CCK-8 reagent. NS indicated no significance. Data were show as mean + SD of three independent experiments. […]

Raji MEK DD cells [2] = assay: Erk1/2 phosphorylation in Raji cells expressing MEK DD (Western blot); details: 1 h
Procedure: as §2, with “(D-F) Inhibition of Erk1/2 phosphorylation was required for the anti-proliferative activity of X-370. (D) Raji cells ectopically expressing a constitutively activated phospho-mimic MEK1 mutant (MEK1 S202D/S204D or MEK DD) were incubated with X-370 or AZD6244 for 1 h and then subjected to Western blot.” left out

Raji MEK DD cells [3] = assay: Proliferation of Raji MEK DD cells (CCK-8); details: Raji MEK DD; 1 μM, 72 h, CCK-8
Procedure: as §2, with “(C) X-370 disrupted the association between PDK1 and MEK1/2.” left out, “WCL: whole cell lysate. (D-F) Inhibition of Erk1/2 phosphorylation was required for the anti-proliferative activity of X-370. (D) Raji cells ectopically expressing a constitutively activated phospho-mimic MEK1 mutant (MEK1 S202D/S204D or MEK DD) were incubated with X-370 or AZD6244 for 1 h and then subjected to Western blot.” left out
luciferase. Raji cells expressing MEK DD or luciferase were incubated with 1 μM AZD6244 or DMSO control respectively for 72 h, and then cell viability were assessed by CCK-8 reagent. […]

Rh30-Myr-p110δ cells = assay: Akt phosphorylation in isogenic Rh30-Myr-p110 cells (Western blot); details: panel of isogenic Rh30-Myr-p110α/β/γ/δ cells, 1 h
Excerpt: To assess the selectivity of X-370 in the context of an isogenic cellular background, we generated a panel of Rh30 human rhabdomyosarcoma cell lines each of which stably expresses a single myristoylated (Myr)-epitope tagged p110 human class I PI3K catalytic subunit, termed as Rh30-Myr-p110α, Rh30-Myr-p110β, Rh30-Myr-p110γ or Rh30-Myr-p110δ. In these cells, endogenous PI3K is not activated under serum-free culture conditions, whereas the ectopically expressed p110 isoforms are membrane-anchored and constitutively active due to myristoylation at N-terminal. Utilizing this cell panel, isoform-specific PI3K activity can be determined for any given inhibitor[25]. These cells were treated with X-370 and phosphorylated Akt was detected as the readout of PI3K activity. X-370 inhibited phosphorylation of Akt at both Thr308 and Ser473 in a dose-dependent manner in four tested cell lines (Figure 2A). […] Similar property was also observed in CAL-101 (Figure S2).
Cell lysates were probed with indicated antibodies. The IC50 values were calculated based on relative band intensity measured with ImageQuant™ TL (GE Healthcare Life Sciences, Piscataway, NJ) (B). Data shown are mean values from three independent experiments. (C, D, E, F) X-370 blocked stimuli-triggered PI3Kδ activation. MEF cells and THP-1 were starved in serum-free medium for 12 h or 4 h respectively and X-370 were added for an additional 1 h treatment following stimulation of IGF-1 at 100 ng/ml for MEF cells (C), LPA at 10 μM for MEF cells (D), MCP-1 at 100ng/ml for THP-1 (E) and M-CSF at 50 ng/ml for THP-1 (F). Similar results were derived from 3 independent experiments. TEXT PRINTED IN THE PICTURE: (B) X-370: IC50 (μM) in Rh30-Myr-p110s, Akt pT308, PI3Kα: 0.68; IC50 (μM) in Rh30-Myr-p110s, Akt pT308, PI3Kβ: 0.4; IC50 (μM) in Rh30-Myr-p110s, Akt pT308, PI3Kγ: 0.46; IC50 (μM) in Rh30-Myr-p110s, Akt pT308, PI3Kδ: 0.032; IC50 (μM) in Rh30-Myr-p110s, Akt pS473, PI3Kα: 0.53; IC50 (μM) in Rh30-Myr-p110s, Akt pS473, PI3Kβ: 0.29; IC50 (μM) in Rh30-Myr-p110s, Akt pS473, PI3Kγ: 0.23; IC50 (μM) in Rh30-Myr-p110s, Akt pS473, PI3Kδ: 0.02 DOUBTS OF THE COPYIST ABOUT THIS PICTURE: Panel B prints no substance label in the table itself; the label X-370 is taken from the other panels of the same picture, where it is the only substance printed. […]
as §3, §4, §5
(1 picture or pasted object on this page, not shown here) […]
in serum-free medium for 12 h and then incubated with serially diluted CAL -101 for an additional 1 h.
Cell lysates were probed with indicated antibodies. The IC50 values were calculated based on relative band intensity measured with ImageQuant™ TL (GE Healthcare Life Sciences, Piscataway, NJ). Data shown are mean values from three independent experiments.
Table S1: Inhibitory activity of X-370 against protein kinases […]
kinome at 10 μM. The relative kianse activity left in the presence of 10 μM were shown (Mi llipore […]
Kinase activity (% of control) Kinase activity (% of control) Kinase activity (% of control) […]
CDK1/cyclinB 97 Lck activated 89 Ret 125 […]

| SMILES | phosphorylated Erk1/2, panel of pathway inhibitors (Raji cells; Raji (Figure 5B)) | phosphorylated Erk1/2, panel of pathway inhibitors (SU-DHL-6 cells; SU-DHL-6 (Figure 5B)) | antiproliferative activity alone [1] | Erk1/2 phosphorylation (Raji MEK DD cells [2]) | antiproliferative activity alone (Raji MEK DD cells [3]) | phosphorylation of Akt and Erk1/2 (Raji cells; Raji, 1 h) | phosphorylation of Akt and Erk1/2 (SU-DHL-6 cells; SU-DHL-6, 1 h) | selectivity against PI3Kδ-mediated signaling at cellular level (Rh30-Myr-p110δ cells) |
| --- | --- | --- | --- | --- | --- | --- | --- | --- |
| Cn1cnc2c(F)c(Nc3ccc(Br)cc3Cl)c(C(=O)NOCCO)cc21 [AZD6244] | down-regulated | down-regulated | little antiproliferative activity | abolished | little antiproliferative activity |  |  |  |
| CC[C@H](Nc1ncnc2[nH]cnc12)c1nc2cccc(F)c2c(=O)n1-c1ccccc1 [CAL-101, idelalisib, reference compound] |  |  |  |  |  | downregulated at low nanomolar concentrations | downregulated at low nanomolar concentrations | highly selective |
